≈ marks a conversion by molar mass, not a printed value.

Holding throughout (format): functional
One assay deals with Escherichia coli. In words: Ability to inhibit autophosphorylation of NR11 and/or transphosphorylation of NR1 TCS proteins from Escherichia coli.
In another assay the test system is Enterococcus faecium. In words: In vitro antibacterial activity against E. faecium(VR) strain, OC3312 Van R.
In assay [1] the test system is Staphylococcus aureus. In words: In vitro antibacterial activity against methicillin resistant Staphylococcus aureus (MRSA) strain, OC2089.
Assay [2] has as its system Staphylococcus aureus. In words: In vitro antibacterial activity against Staphylococcus aureus strain, ATCC 29213.
A further assay has as its system Bacillus subtilis. In words: Ability to inhibit autophosphorylation of KinA and/or Sp0F TCS proteins from Bacillus subtilis.
The next assay relates to Enterococcus faecalis. In words: In vitro antibacterial activity against Enterococcus faecalis strain, OC3041.

As a reminder, the IC50 is the concentration that inhibits the measured activity by half. As usually defined, the MIC is the lowest concentration found to suppress growth. Lower therefore signals greater potency. As for `CCCCCCCCCCCCCCCCCCCCOc1cccc(O)c1C(=O)O`, the IC50 in the assay on Escherichia coli and in the assay with Bacillus subtilis was more than 500 µM each time. In addition, the MIC against Enterococcus faecium, in the assay on Staphylococcus aureus [1] and against Staphylococcus aureus [2] was more than 128 µg/mL in each case.

As for `CCCCCCCCCCCCCCOc1ccccc1C(=O)O`, the figures for the 50% inhibitory concentration (IC50) in the assay on Escherichia coli and with Bacillus subtilis were 89 µM and more than 500 µM, respectively.

With `CCCCCCCCCCCCCCOc1ccccc1C(=O)OC`, the half-maximal inhibitory concentration (IC50) in the assay with Escherichia coli and in the assay on Bacillus subtilis was more than 500 µM in each case.

On to `O=C(O)c1c(O)cccc1OCCCCCc1ccccc1`, for which the minimal inhibitory concentration (MIC) in the assay on Enterococcus faecalis stood at 128 µg/mL (≈ 426 µM); in the assay with Enterococcus faecium it was 128 µg/mL (≈ 426 µM); against Staphylococcus aureus [1], 64 µg/mL (≈ 213 µM); against Staphylococcus aureus [2] it was 64 µg/mL (≈ 213 µM). The results for the 50% inhibitory concentration (IC50) in the assay with Escherichia coli and in the assay with Bacillus subtilis were more than 500 µM and 380 µM, respectively.

Turning to `CCCCCCCCCCCOc1cccc(O)c1C(=O)O`, the MIC with Enterococcus faecalis is 16 µg/mL (≈ 51.9 µM); against Enterococcus faecium, 16 µg/mL (≈ 51.9 µM); against Staphylococcus aureus [1] it was 16 µg/mL (≈ 51.9 µM); with Staphylococcus aureus [2] it was 8 µg/mL (≈ 25.9 µM). For the same molecule, the IC50 in the assay on Escherichia coli was found to be 44 µM; in the assay on Bacillus subtilis, 25 µM.

Consider `O=C(O)c1c(O)cccc1OCCC(c1ccccc1)(c1ccccc1)c1ccccc1`, for which the MIC against Enterococcus faecalis amounted to 16 µg/mL (≈ 37.7 µM); with Enterococcus faecium it was 16 µg/mL (≈ 37.7 µM); against Staphylococcus aureus [1], 8 µg/mL (≈ 18.8 µM); against Staphylococcus aureus [2], 4 µg/mL (≈ 9.42 µM). The IC50 with Escherichia coli came to 63 µM; in the assay on Bacillus subtilis, 85 µM.

Regarding `CCCCCCCCOc1cccc(O)c1C(=O)O`, the MIC is 128 µg/mL (≈ 481 µM) against Enterococcus faecalis, 128 µg/mL (≈ 481 µM) in the assay with Enterococcus faecium, 64 µg/mL (≈ 240 µM) against Staphylococcus aureus [1] and 64 µg/mL (≈ 240 µM) in the assay with Staphylococcus aureus [2]. Also, the half-inhibitory concentration (IC50) in the assay with Escherichia coli was more than 500 µM; in the assay with Bacillus subtilis, 190 µM.

As for `CCCCCCCCCCCCOc1cccc(O)c1C(=O)OC`, the IC50 with Escherichia coli and in the assay with Bacillus subtilis was more than 500 µM in each case.

Take `O=C(O)c1c(O)cccc1OCCCc1ccccc1`: the MIC in the assay on Enterococcus faecalis, in the assay with Enterococcus faecium, with Staphylococcus aureus [1] and in the assay on Staphylococcus aureus [2] was more than 128 µg/mL each time. The IC50 in the assay on Escherichia coli and with Bacillus subtilis was more than 500 µM throughout.

In the case of `CCCCCCCCCCCCCCCc1cccc(O)c1`, in the assay on Bacillus subtilis, the IC50 was more than 500 µM.

As to `CCCCCCCCCCCCCCOc1cccc(O)c1C(=O)O`, the minimal inhibitory concentration (MIC) was 4 µg/mL (≈ 11.4 µM) in the assay with Enterococcus faecalis, 4 µg/mL (≈ 11.4 µM) against Enterococcus faecium, more than 32 µg/mL with Staphylococcus aureus [1] and more than 64 µg/mL in the assay on Staphylococcus aureus [2]. For the same molecule, the IC50 in the assay on Escherichia coli worked out at 5 µM; in the assay with Bacillus subtilis, 2.2 µM.

On to `CCCCCCCCCCCCCCCCOc1cccc(O)c1C(=O)O`, for which the MIC with Enterococcus faecalis was 8 µg/mL (≈ 21.1 µM); with Enterococcus faecium, 8 µg/mL (≈ 21.1 µM); with Staphylococcus aureus [1], 128 µg/mL (≈ 338 µM); in the assay on Staphylococcus aureus [2], more than 128 µg/mL. Moreover, the half-maximal inhibitory concentration (IC50) with Escherichia coli was determined as 1.5 µM; in the assay with Bacillus subtilis, 3 µM.

For the molecule `CC/C=C\CCCCCCCCCCOc1cccc(O)c1C(=O)O`, the MIC in the assay with Enterococcus faecalis was 16 µg/mL (≈ 45.9 µM); against Enterococcus faecium it was 16 µg/mL (≈ 45.9 µM); against Staphylococcus aureus [1], 32 µg/mL (≈ 91.8 µM); in the assay on Staphylococcus aureus [2] it was 32 µg/mL (≈ 91.8 µM). Besides, the values for the IC50 in the assay on Escherichia coli and with Bacillus subtilis were 7.8 µM and 8 µM, respectively.

`CCCCCCCCCCCCOc1cccc(O)c1C(=O)O`: the minimum inhibitory concentration (MIC) in the assay on Enterococcus faecalis, against Enterococcus faecium, in the assay on Staphylococcus aureus [1] and in the assay with Staphylococcus aureus [2] was 8 µg/mL (≈ 24.8 µM) in each case. The IC50 worked out at 17 µM with Escherichia coli and 4.4 µM in the assay with Bacillus subtilis.

Regarding `CCCCCCCCCCCCCCOc1cccc(O)c1C(=O)OC`, the half-inhibitory concentration (IC50) in the assay with Escherichia coli and with Bacillus subtilis was more than 500 µM each time.

Consider `CCCCCCCCCCCCCCCCCCOc1cccc(O)c1C(=O)O`, for which the results for the half-maximal inhibitory concentration (IC50) in the assay with Escherichia coli and with Bacillus subtilis were 130 µM and 63 µM, respectively. The MIC against Enterococcus faecium, in the assay on Staphylococcus aureus [1] and with Staphylococcus aureus [2] was 128 µg/mL (≈ 315 µM) in each case.

With `CCCCCCCCCCCCCCCc1cc(O)cc(O)c1` [CARDOL], the IC50 with Bacillus subtilis was 235 µM.

The values above are taken from ChEMBL document CHEMBL1132034, “6-oxa isosteres of anacardic acids as potent inhibitors of bacterial histidine protein kinase (HPK)-mediated two-component regulatory systems” (Bioorg Med Chem Lett, 1999).
